Activity calls are given as the source filed them. The calls are words filed in the database; no cut-off is given here.
Assays:
Aspergillus niger = assay: Potency index, ratio of miglitol Ki to test compound Ki for inhibition of Aspergillus niger Alpha-glucosidase incubated for 10 mins by Lineweaver-Burk plot analysis
Mus musculus [1] = assay: Hypoglycemic activity in C57BL/6J mouse assessed as molar reduction in PBG level at 1.6 mg/kg, po co-administered with maltose and measured after 30 mins by glucometer relative to control; format: functional; design: scale not given: the % may be the effect or the level left; settings: 0.5 h
Mus musculus [2] = assay: Hypoglycemic activity in C57BL/6J mouse assessed as blood glucose level at 1.6 mg/kg, po co-administered with maltose and measured after 15 mins by glucometer (380.8 +/- 20.6 mg/dL); format: functional; settings: 0.25 h
Mus musculus [3] = assay: Hypoglycemic activity in C57BL/6J mouse assessed as blood glucose level at 0.8 mg/kg, po co-administered with maltose and measured after 30 mins by glucometer (380.8 +/- 20.6 mg/dL); format: functional; settings: 0.5 h
Mus musculus [4] = assay: Hypoglycemic activity in C57BL/6J mouse assessed as decrease in PBG level at 0.4 mg/kg, po co-administered with maltose and measured after 15 mins by glucometer relative to control; format: functional; design: scale not given: the % may be the effect or the level left; settings: 0.25 h
Mus musculus [5] = assay: Hypoglycemic activity in C57BL/6J mouse assessed as decrease in PBG level at 0.8 mg/kg, po co-administered with maltose and measured after 15 mins by glucometer relative to control; format: functional; design: scale not given: the % may be the effect or the level left; settings: 0.25 h
Mus musculus [6] = assay: Hypoglycemic activity in C57BL/6J mouse assessed as decrease in PBG level at 0.4 mg/kg, po co-administered with maltose and measured after 30 mins by glucometer relative to control; format: functional; design: scale not given: the % may be the effect or the level left; settings: 0.5 h
Mus musculus [7] = assay: Hypoglycemic activity in C57BL/6J mouse assessed as decrease in PBG level at 0.8 mg/kg, po co-administered with maltose and measured after 30 mins by glucometer relative to control; format: functional; design: scale not given: the % may be the effect or the level left; settings: 0.5 h
Mus musculus [8] = assay: Relative hypoglycemic rate in C57BL/6J mouse assessed as molar reduction in PBG level by measuring fold change at 1.6 mg/kg, po co-administered with maltose and measured after 30 mins by glucometer relative to miglitol; format: functional; settings: 0.5 h
Mus musculus [9] = assay: Hypoglycemic activity in C57BL/6J mouse assessed as reduction in PBG level measured per DNJ unit at 0.4 mg/kg, po co-administered with maltose and measured at 15 to 30 mins by glucometer relative to control; format: functional; design: scale not given: the % may be the effect or the level left; settings: time 15-30 min
[10] = Toxicity in C57BL/6J mouse assessed as effect on liver morphology at 1.6 mg/kg, po co-administered with maltose for 7 days by Hematoxylin and eosin staining based analysis; format: organism-based; settings: in vivo, 168 h, time 7 day
[11] = Toxicity in C57BL/6J mouse assessed as effect on spleen morphology at 1.6 mg/kg, po co-administered with maltose for 7 days by Hematoxylin and eosin staining based analysis; format: organism-based; settings: in vivo, 168 h, time 7 day
[12] = Toxicity in C57BL/6J mouse assessed as effect on lung morphology at 1.6 mg/kg, po co-administered with maltose for 7 days by Hematoxylin and eosin staining based analysis; format: organism-based; settings: in vivo, 168 h, time 7 day
Mus musculus [13] = assay: Hypoglycemic activity in KKAy diabetic mouse model assessed as blood glucose level at 1.6 mg/kg, po co-administered with maltose and measured after 30 mins by glucometer (reference value: 582.6 +/- 22.9 mg/dl); format: functional; settings: 0.5 h
Mus musculus [14] = assay: Hypoglycemic activity in KKAy diabetic mouse model assessed as blood glucose level at 1.6 mg/kg, po co-administered with maltose and measured after 60 mins by glucometer (reference value: 582.6 +/- 22.9 mg/dl); format: functional; settings: 1 h
Mus musculus [15] = assay: Hypoglycemic activity in KKAy diabetic mouse model assessed as blood glucose level at 1.6 mg/kg, po co-administered with maltose and measured after 120 mins by glucometer (reference value: 582.6 +/- 22.9 mg/dl); format: functional; settings: 2 h
Mus musculus [16] = assay: Hypoglycemic activity in KKAy diabetic mouse model assessed as decrease in PBG level at 1.6 mg/kg, po co-administered with maltose and measured after 30 mins by glucometer relative to control; format: functional; design: scale not given: the % may be the effect or the level left; settings: 0.5 h
Mus musculus [17] = assay: Hypoglycemic activity in KKAy diabetic mouse model assessed as decrease in PBG level at 1.6 mg/kg, po co-administered with maltose and measured after 60 mins by glucometer relative to control; format: functional; design: scale not given: the % may be the effect or the level left; settings: 1 h
Mus musculus [18] = assay: Hypoglycemic activity in KKAy diabetic mouse model assessed as decrease in PBG level at 1.6 mg/kg, po co-administered with maltose and measured after 120 mins by glucometer relative to control; format: functional; design: scale not given: the % may be the effect or the level left; settings: 2 h
Mus musculus [19] = assay: Relative hypoglycemic rate in KKAy diabetic mouse model assessed as reduction in PBG level by measuring fold change at 1.6 mg/kg, po co-administered with maltose and measured after 30 mins by glucometer relative to miglitol; format: functional; settings: 0.5 h
[20] = Self assembly property of the compound in water assessed as mean diameter at 1 x 10^-4 M by dynamic light scattering spectrometric analysis; format: physicochemical; settings: buffer, 100 µM; dose 1 10^-4M
[21] = Self assembly property of the compound assessed as diameter at 1 x 10^-5 mol/L by dynamic light scattering spectrometric analysis; format: physicochemical; settings: 10 µM; dose 1 10^-5mol/L
[22] = Self assembly property of the compound assessed as diameter at 2.5 x 10^-5 mol/L by dynamic light scattering spectrometric analysis; format: physicochemical; settings: 25 µM; dose 2.5 10^-5mol/L
[23] = Self assembly property of the compound assessed as diameter at 5 x 10^-5 mol/L by dynamic light scattering spectrometric analysis; format: physicochemical; settings: 50 µM; dose 5 10^-5mol/L
[24] = Self assembly property of the compound assessed as diameter at 1 x 10^-4 mol/L by dynamic light scattering spectrometric analysis; format: physicochemical; settings: 100 µM; dose 1 10^-4mol/L
Mus musculus [25] = assay: Binding affinity to mouse alpha-glucosidase assessed as fluorescence intensity at 2 x 10^-4 M administered as Nile red complex by fluorescence spectra analysis (reference value: 3586); settings: dose 2.0 10^-4M
Mus musculus [26] = assay: Binding affinity to mouse alpha-glucosidase assessed as decrease in fluorescence intensity at 200 uM administered as Nile red complex in presence of miglitol by fluorescence spectra analysis
[27] = Binding affinity to mouse alpha-glucosidase assessed as miglitol binding constant at 200 uM administered as Nile red complex in presence of miglitol by fluorescence spectra analysis
[28] = Stability of compound in simulated intestinal fluid at 2 x 10^-4 M administered as Nile red complex by fluorescence spectra analysis; format: ADME; settings: simulated gi fluid, 200 µM; dose 2 10^-4M
[29] = Drug uptake in C57/6J mouse small intestine assessed as increase in fluorescence at 5 x 10^-5M, po administered as Nile red complex and measured upto 2 hrs by fluorescence imaging analysis; format: ADME, organism-based; settings: in vivo, dose 5 10^-5M
[30] = Drug uptake in C57/6J mouse heart assessed as increase in fluorescence at 5 x 10^-5M, po administered as Nile red complex and measured after 4 hrs by fluorescence imaging analysis; format: ADME, organism-based; settings: in vivo, dose 5 10^-5M
[31] = Drug uptake in C57/6J mouse spleen assessed as increase in fluorescence at 5 x 10^-5M, po administered as Nile red complex and measured after 4 hrs by fluorescence imaging analysis; format: ADME, organism-based; settings: in vivo, dose 5 10^-5M
[32] = Drug uptake in C57/6J mouse kidney assessed as increase in fluorescence at 5 x 10^-5M, po administered as Nile red complex and measured after 4 hrs by fluorescence imaging analysis; format: ADME, organism-based; settings: in vivo, dose 5 10^-5M

Which results are given for CCCCCCCCCCCCCCCCCCNC(=O)CN(Cc1cn(CCCCCCN2C[C@H](O)[C@@H](O)[C@H](O)[C@H]2CO)nn1)C(=O)CN(Cc1cn(CCCCCCN2C[C@H](O)[C@@H](O)[C@H](O)[C@H]2CO)nn1)C(=O)CN(Cc1cn(CCCCCCN2C[C@H](O)[C@@H](O)[C@H](O)[C@H]2CO)nn1)C(=O)CN(Cc1cn(CCCCCCN2C[C@H](O)[C@@H](O)[C@H](O)[C@H]2CO)nn1)C(C)=O?
Ratio Ki (Aspergillus niger): 121; Activity (Mus musculus [1]): 11.5%; Activity (Mus musculus [2]): 302.04 mg/dL; Activity (Mus musculus [3]): 287.6 mg/dL; Activity (Mus musculus [4]): 6.5%; Activity (Mus musculus [5]): 12.2%; Activity (Mus musculus [6]): 18.6%; Activity (Mus musculus [7]): 24.5%; fold change (FC) (Mus musculus [8]): 4; Activity (Mus musculus [9]): 22.2%; Activity [10]: Non-Toxic; Activity [11]: Non-Toxic; Activity [12]: Non-Toxic; Activity (Mus musculus [13]): 419.7 mg/dL; Activity (Mus musculus [14]): 432.6 mg/dL; Activity (Mus musculus [15]): 351 mg/dL; Activity (Mus musculus [16]): 26.2%; Activity (Mus musculus [17]): 22.1%; Activity (Mus musculus [18]): 19.9%; fold change (FC) (Mus musculus [19]): 3; Activity [20]: 283 nm; Activity [21]: 179 nm; Activity [22]: 195 nm; Activity [23]: 233 nm; Activity [24]: 276 nm; Flu intensity (Mus musculus [25]): 1750; Activity (Mus musculus [26]): inactive; Ka [27]: 205 M⁻¹; Stability [28]: Stable; Drug uptake [29]: Active; Drug uptake [30]: Not Active; Drug uptake [31]: Not Active; Drug uptake [32]: Not Active

From ChEMBL document CHEMBL5543113, “Amphiphilic α-Peptoid-deoxynojirimycin Conjugate-based Multivalent Glycosidase Inhibitor for Hypoglycemic Effect and Fluorescence Imaging” (J Med Chem, 2024)
